Target: 5-hydroxytryptamine receptor 1E (Homo sapiens, UniProt P28566)
Sequence (P28566 whole entry): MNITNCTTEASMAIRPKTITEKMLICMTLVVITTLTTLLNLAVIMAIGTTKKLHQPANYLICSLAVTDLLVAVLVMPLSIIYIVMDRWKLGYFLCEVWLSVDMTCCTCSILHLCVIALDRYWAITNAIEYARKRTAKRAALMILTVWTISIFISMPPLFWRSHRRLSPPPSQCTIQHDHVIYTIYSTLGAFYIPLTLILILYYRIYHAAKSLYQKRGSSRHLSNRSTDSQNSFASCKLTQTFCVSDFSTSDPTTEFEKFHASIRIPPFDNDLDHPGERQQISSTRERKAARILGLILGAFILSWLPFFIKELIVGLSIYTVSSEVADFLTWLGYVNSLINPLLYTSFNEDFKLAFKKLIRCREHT

Q: Which Ki does the source give for `O=C(c1ccc(F)cc1)C1CCN(CCn2c(=O)[nH]c3ccccc3c2=O)CC1` [3-(2-{4-[(4-fluorophenyl)carbonyl]piperidin-1-yl}ethyl)-1,2,3,4-tetrahydroquinazoline-2,4-dione] here?
A: The Ki was greater than 10 µM.

Q: For `Cn1cc(CCN)c2cc(O)ccc21` [5-HT,omega-N-Me], which Ki is on record?
A: The Ki was 0.121 µM.

Q: `CC(CO)NC(=O)C1C=C2c3cccc4[nH]cc(c34)CC2N(C)C1` (stereo not drawn) [CAS_60-79-7] was tested. Which Ki did it give?
A: Its Ki is 0.088 µM.

Q: Which Ki does the source give for `CCC(=O)c1ccc(N)cc1` [CAS_6270] here?
A: The Ki was greater than 10 µM.

Q: With `CC(C)NCC(O)COc1cccc2[nH]ccc12` (stereo not drawn) [LB-46] as the compound, how does the Ki read?
A: Its Ki is greater than 10 µM.

Q: With `COc1cc(N)c(Cl)cc1C(=O)NC1CN2CCC1CC2` (stereo not drawn) [ZACOPRIDE,R] as the compound, how does the Ki read?
A: Its Ki is greater than 10 µM.

Q: `NCCc1c[nH]c2ccc(C(N)=O)cc12` [[3H]-5-carboxamidotryptamine] was tested. Which Ki did it give?
A: The Ki was greater than 10 µM.

Q: For `COC(=O)[C@@H]1[C@H]2C[C@H]3c4[nH]c5ccccc5c4CCN3C[C@@H]2CC[C@@H]1O` [yohimbic acid methyl ester], which Ki is on record?
A: Its Ki is 3.43 µM.

Reference: BindingDB's records for PubMed 1513320 (Synaptic Pharmaceutical, 1992)
